# Results as given in a melting point compilation (Tetko et al.; mined from patent text by program, amines drawn as free bases though some values may be those of a salt).
row,SMILES,melting point
1,CCC(c1oc2ccccc2c(=O)c1-c1ccccc1F)n1cnc2c(N)ncnc21 (stereo not given),160 to 163 °C
2,O=C(O)c1c[nH]c2cn[nH]c2c1=O,> 330 °C
3,Cc1onc(-c2ccccc2)c1-c1csc(N)n1,223 to 224 °C
4,CC(C)c1nc(Sc2ccc(CCC(=O)O)cc2)c(C(=O)O)n1Cc1cc2c(cc1Cl)OCO2,198 °C
5,CC(=NOCCOc1ccc(CC2OC(=O)N(C(c3ccccc3)(c3ccccc3)c3ccccc3)C2=O)cc1)c1ccc(-c2ccccc2)cc1 (stereo not given),193 to 195 °C
6,CC(C)=CCn1c(N(C)C[C@@H](C)N)nc2c1c(=O)n(C)c(=O)n2C,101 to 104 °C
7,CC(=O)NCCC1=C(C(C)C)Cc2ccc3nc(C)oc3c21,135 to 138 °C
8,CS(=O)(=O)Oc1cnc2cc(C(F)(F)F)ccc2c1O,220 °C
9,COc1c(C)c2c(c(O)c1CC1=C(C)C(CC(=O)O)CC1)C(=O)OC2 (stereo not given),153 to 159 °C
10,CC(C)C[C@H](NC(=O)OC(C)(C)C)[C@H](O)c1nccs1,121 to 122 °C
11,O=[N+]([O-])c1ccc(CCc2nccs2)cc1,92 to 93 °C
12,CC(C)(C)c1nc(C(N)=S)ncc1O,169 to 171 °C
13,CC(C)(C)OC(=O)Nc1sc(-c2cncc(F)c2)nc1I,148 to 149 °C
14,CCCCCCCCCCCCCCOC(=O)NO,64 to 66 °C
15,O=c1[nH]c2cc(Cl)ccc2c(O)c1SC/C=C\c1ccccc1,> 300 °C
16,Cc1noc(NC(=O)N2CCN(c3cc(-c4ccccc4F)ncn3)CC2)c1C,189 to 190 °C
17,CN(C)C1CCC(Nc2nc3cc(Cl)c(Cl)cc3nc2-c2ccncc2)CC1 (stereo not given),183 to 185 °C
18,COc1cc2c(cc1OCc1ccccc1)CCCC(=O)N2Cc1cc(OC)c(OC)c(OC)c1,129 to 130 °C
19,O=C(c1ccc(OCC2CC2)c2oc3ccccc3c12)[NH+]([O-])c1cccnc1 (stereo not given),272 to 275 °C
20,COc1ccc(N2CCN(c3c(C)c(C)c4c(c3C)CC(C)(CN3CCOCC3)O4)CC2)cc1 (stereo not given),137 to 142 °C
21,CN(C)CCCc1cccc(OCCCNc2nc(N)nn2C)c1,64 to 65.5 °C
22,Nc1nc(N2CCN(CCCC3(c4ccc(F)cc4)OCCO3)CC2)ccc1[N+](=O)[O-],117 to 118 °C
23,COc1c(OS(C)(=O)=O)ccc2[nH]ncc12,130 to 131 °C
24,N#Cc1c(O)cccc1[N+](=O)[O-],200 °C
25,Cc1ccc2nc3[nH]c(=O)[nH]c3cc2c1Cl,> 360 °C
26,C[Si](C)(C)NC(=O)CC(=O)N[Si](C)(C)C,72 to 76 °C
27,N#Cc1nn(-c2c(Cl)cc(C(F)(F)F)cc2Cl)c(N)c1S(=O)(=O)c1ccc(Cl)cc1,90 to 95 °C

row,SMILES,melting point
1,O=C1N=C(N2CCCCCC2)SC1=Cc1cccc(-c2ccc(O)c(C34CC5CC(CC(C5)C3)C4)c2)c1,321 to 324 °C
2,CC(=O)c1cc2c(s1)C(N1CCCC1=O)C(O)C(C)(C)O2 (stereo not given),102 to 106 °C
3,CCNC(=S)Nc1ccc2ncc(Nc3cc(OC)c(OC)c(OC)c3)cc2n1,237 to 238 °C
4,COc1cn(-c2ccc(C(F)(F)F)cc2F)nc(-c2ccnn2-c2ccccc2)c1=O,169 to 171 °C
5,COc1cc(C=CC(=O)C=Cc2cc(OC)cc(OC)c2)cc(OC)c1,124 to 126 °C
6,COC(=O)NNc1ccccc1OCCSC,92 to 94 °C
7,CCOP(=O)(OCC)C(Nc1nccs1)P(=O)(OCC)OCC,103 to 104 °C
8,Nc1c(-c2nc(-c3ccco3)n[nH]2)nnn1Cc1ccc(F)cc1,200 to 202 °C
9,CCCC1=C(Cl)C(=O)c2ccccc2C1=O,71 to 73 °C
10,O=Cc1ccc(-c2ccc3ncnc(Nc4ccc(OCc5cccc(F)c5)c(Cl)c4)c3c2)o1,230 to 234 °C
11,CS(=O)(=O)CC(O)(Cn1cncn1)C(F)(F)C(F)(F)C(F)(F)C(F)(F)F (stereo not given),106 to 109 °C
12,Cc1ccc(-c2csc(-c3ccc4c(c3)C(C)(C)CCC4(C)C)c2)cc1,135 to 136 °C
13,Fc1ccc(-c2ccc3c(c2)C2(CCCCC2)C(=NOCc2ccccc2)N3)cc1,205 to 208 °C
14,Cc1oc(-c2ccccc2)nc1COc1ccc(N)cn1,106 to 107 °C
15,COc1cc(CCc2ccc(N)nn2)cc(OC)c1OC,130 to 132 °C
16,O=Cc1cccc(C(CC2=NCCN2)c2ccccn2)c1 (stereo not given),138 to 139 °C
17,OC(CCCN1CCC(c2ncco2)CC1)c1ccc(F)cc1 (stereo not given),99 to 100 °C
18,O=C(NCCc1ncc(Cl)cc1Cl)c1ccccc1C(F)(F)F,118 °C
19,COC1(OC)CC(Nc2ncnc3c2ncn3C2OC(CO)C(O)C2O)NC1=O (stereo not given),176 to 178 °C
20,CCCN(CCC)C(=O)C(CCC(=O)NC)NC(=O)OCc1ccccc1 (stereo not given),75 to 76 °C
21,CC(CO)CCCC(C)C1CC=C2C3=C(CCC21C)C1(C)CCC(O)C(C)(C)C1CC3 (stereo not given),180 to 181 °C
22,CCOC(=O)c1cc2c(C(F)(F)F)cc(CO)cc2n1C,158 to 159 °C
23,COc1ccc(-c2cc(=O)n(Cc3ccccc3)nc2-c2ccc(OC)cc2)cc1,145 to 146 °C
24,CCOc1cc(C2=NN(C3CCCC3)C(=O)[C@H]3CC=CC[C@@H]23)ccc1OC (relative stereo),124 to 127 °C
25,O=C(O)c1cn(C2CC2)c2c(Cl)c(N3CCC(CNCCF)C3)c(F)cc2c1=O (stereo not given),138 to 142 °C
26,COc1cc2c(c(Cl)c1Cl)C(=O)c1ccccc1-2,268 to 270 °C

# The remaining lines, values ahead:
row,melting point,SMILES
1,193 to 195 °C,COc1cccc2sc(NC(=O)CO)nc12
2,204 to 205 °C,CC(=O)Nc1ccc(OC(=O)C2CSC(=O)N2)cc1 (stereo not given)
3,210 to 211 °C,CC(C)(C)c1ccc(NC(=O)c2ccc(C#N)cc2)cc1
4,124 to 125 °C,CC(C)(C)C(=O)Nc1ccc(F)cc1
5,224 to 225 °C,COC(=O)C1=C(C)Nc2nccn2C1c1cccc(N)c1 (stereo not given)
6,148 to 150 °C,Cc1[nH]c(C(=O)N2CC=CN2)c(C)c1-c1nc2ccc(C(=O)c3ccccc3)cc2[nH]1
7,130 to 131 °C,CN1C(=O)CC[C@]2(C)c3ccc(-c4ccccc4[N+](=O)[O-])cc3CC[C@@H]12
8,216 to 218 °C,CCOC(=O)/C=C/C=C/c1cccc(-c2c(CC(=O)Nc3ccc(F)cc3C(F)(F)F)c(=O)oc3cc(Cl)c(C)cc23)c1
9,103 to 107 °C,CON(C)C(=O)c1cc2c(Sc3ccc(C)cc3)cncc2s1
10,176 to 178 °C,Cc1ccc(CNc2c3c(nc4ccccc24)CCCC3O)cc1 (stereo not given)
11,60 to 62 °C,COC1CCN2C(=O)c3cccc(N)c3C2C1 (stereo not given)
12,94 to 96 °C,Cc1cn(NCCCc2ccncc2F)c2ccc(OCc3ccccc3)cc12
13,264 to 265 °C,CCCn1ccc2c(c1=O)C(c1cccc(Cl)c1Cl)C(C(=O)OCC)=C(C)N2 (stereo not given)
14,181 to 183 °C,COC(=O)c1ccc(S(=O)(=O)N2CCC(Sc3cc(C(C)(C)C)c(O)c(C(C)(C)C)c3)CC2)n1C
15,75 to 76 °C,COc1ccc(-c2nc(SCC=O)sc2-c2ccc(OC)cc2)cc1
16,183 to 186 °C,OC1CCC2(c3c[nH]cn3)Cc3ccccc3C12 (stereo not given)
17,246 °C,CC(=O)N1c2ccc(-c3ccc(C(=O)O)cc3)cc2C(Nc2ccccc2)CC1C (stereo not given)
18,81 to 83 °C,COc1cccc(C2=C(CO)C(=O)N(C)CC2)c1
19,97 to 98 °C,O=C(c1ccc(Cl)cc1)c1ccc([N+](=O)[O-])cc1
20,124 to 126 °C,CNc1ccc(NC(=O)OC2CCCC2)cc1C(Cc1ccc(C(=O)OC)cc1OC)=NOC(C)=O
21,183 to 184 °C,COC(=O)C1=C(C)NC(C)=C(C(C)=O)C1c1ccccc1Cl (stereo not given)
22,188 °C,Oc1ccc(-c2cc3ccccc3[nH]2)c(O)c1
23,244 to 246 °C,CC1(C)CCCC(C)(C)N1Cc1ccc2cc(NC(=O)c3ccc(-c4ccc(Cl)cc4)cc3)ccc2c1
24,115 to 116 °C,O=C(Nc1cc(F)ccc1N1CCCCC1)c1ccncc1

row,melting point,SMILES
1,138 to 140 °C,CC(C)(C)[C@@H](NS(=O)(=O)c1ccc(Oc2ccc(Cl)cc2)cc1)C(=O)O
2,296 to 298 °C,O=c1cc(-c2ccc(OC3CCN(C4CCC4)CC3)cc2)cn[nH]1
3,174 to 176 °C,COC(=O)CN(NC(N)=O)c1ccc(OC)c(C)c1
4,120 to 122 °C,COC(=O)c1ccc(=O)n(CCN(C)C(=O)c2cccnc2)c1
5,116 to 119 °C,CCN(C(C)=O)c1cccc(-c2ccc(Cl)nn2)c1
6,97 to 102 °C,COc1cccc(Cc2cc(Br)ccc2O)c1
7,50 to 51 °C,CCOC(=O)CC(=O)c1ccc(Cl)c(C)c1
8,101 °C,Cc1c(C)c2ccc(OCCCCCc3ccccc3)cc2oc1=O
9,85 to 87 °C,CCCCCCCCC(O)C=Cc1cccc(Oc2cccc(C(=O)O)c2)n1 (racemic)
10,83 to 84 °C,CCOC(=O)c1cc(=O)c2cc(OCCC(C)C)ccc2s1
11,212 to 214 °C,COc1ccc2c(c1)cc(-c1nc(C)no1)n2-c1ccc(CNC(=O)C2(NC(=O)OC(C)(C)C)CC2)cc1
12,148 to 151 °C,O=C(O)COc1cc(F)ccc1C(=O)NCc1cccc([N+](=O)[O-])c1
13,140 to 141 °C,CCOC(=O)NS(=O)(=O)c1ccc2c(c1)CCN(C(=O)N(C)C)CC2
14,107 to 108 °C,COc1ccc2c(c1)N(CCNC(C)=O)CCO2
15,174 °C,CC(C)[C@H](NC(=O)OCc1ccccc1)C(=O)NCc1ccccc1
16,63 to 66 °C,COC(=O)COc1ccc(C(=O)OCc2ccccc2)cc1
17,146 to 147 °C,COCCOc1ccc(/C=C(\C)C(=O)NS(=O)(=O)C(F)(F)F)c(Oc2ncc(C(F)(F)F)cc2Cl)c1
18,163 to 165 °C,CCC(Oc1ccc(C(C)(C)CC(C)(C)C)cc1)C(=O)Nc1ccc(Cl)c(Nc2cc(=O)n(-c3c(Cl)cc(Cl)cc3Cl)[nH]2)c1 (stereo not given)
19,169 to 172 °C,COc1ccc2nc(NC(=O)C(CC3CCCC3)c3ccc(S(=O)(=O)CCc4ccccc4)cc3)sc2n1 (stereo not given)
20,222 to 224 °C,Cc1ccc(-c2cc(C)c(C(=O)N=C(N)N)cc2S(C)(=O)=O)cc1
21,198 to 200 °C,CCCCNc1cc(C(=O)O)cc(S(=O)(=O)NCCCC)c1Sc1ccc(N)cc1
22,204 °C,O=C(O)c1ccc(OCCn2ccnc2)c(Cl)c1
23,73 to 74 °C,CCOC(=O)c1cc2c(F)ccc(Br)c2s1
